{
  "source": "patent US20090317419A1",
  "about": "“Tetramers” (Duke University, priority 2008, published 2009)",
  "key": {"13H11 cells": {"tested_on": "13H11 cells", "settings": "flow cytometry", "protocol": "(§1) Use of antibody-coated beads and cell lines for tetramer quality control. Tetramer stocks were diluted to twice the desired final concentration in PBS containing 1% BSA. An equal volume of beads or cells at 5×10^5 up to 2×10^6 per sample were mixed with tetramer and incubated (4° C.×30 min). Beads or cells were washed with PBS+1% BSA before being fixed in 2% methanol-free formaldehyde (Polysciences, Inc, Warrington, Pa.) in PBS. Samples were stored at 4° C. prior to being analyzed by flow cytometry (BD LSR II, Becton Dickinson, Mountain View, Calif.). Data were analyzed using FlowJo (Tree Star, Ashland, Oreg.). For tetramer titration 40-80 ng tetramer per 10^6 cells/beads was serially diluted over 8-12 points. Optimal concentrations determined by this method were used for subsequent experiments. For cold competition experiments the incubation step was performed by staining with 10-fold excess unlabeled tetramer (4° C.×30 min) prior to the addition of APC-labeled tetramer. For cell dilution experiments, a mixture of mAb cell lines was made and then 1:10 serial dilutions of cells prepared. For cross competition experiments, mixtures of cells were prepared and then stained singly with anti-IgG reagents or tetramer, or the cells were doubly stained with both reagents either sequentially or concurrently."}, "[1]": {"tested_on": "mixture of anti-gp41 MPER 13H11 cells and anti-gp120 V3 F39F cells", "protocol": "as §1"}, "[2]": {"tested_on": "CD19+ B cells of HIV-1 infected subject", "protocol": "Staining of bulk populations for the sorts. Cells from uninfected or HIV-1 infected patients were obtained by leukopheresis under an IRB-approved protocol and were rested in culture overnight in 10% FBS in RPMI-1640 at 37° C. in 5% CO2. Rested cells were enriched for B cells by depletion of non-B cells using magnetic bead separation (BD Biosciences, Mountain View, Calif.). […] Cells were sorted on a BD FACS Aria (BD Biosciences, Mountain View, Calif.) into CD3^− CD14^− CD16^− CD19^+ tetramer and CD3^− CD14^− CD16^− CD19^+ tetramer^+ pools and also as single cells into a 96-well plates containing RNA extraction buffer."}, "[3]": {"tested_on": "B cell subsets from naive C57BL/6 mice", "protocol": "(§2) Cell isolation, serum collection, and PBMC isolations. Heparinized or non-heparanized blood was collected sub-mandibularly 10 days after immunizations. For preparation of peripheral blood lymphocytes for B cell tetramer analysis, PBMC were isolated from blood collected in heparinized tubes (0.2 ml) using Lympholyte M (Cederlane). For Luminex and ELISA assays, sera was isolated from non-heparanized blood and stored at −20° C. until use. Spleen, bone marrow (BM), and peritoneal cavity (PerC) cells were also collected. For most immunizations, tissues were harvested after the 4th boost, except for kinetic studies, in which tissues from mice were harvested after 1, 3 or 7 days after a single immunization. For BM preparations, femora and tibiae were removed, aspirated with tissue medium using 23 gauge needles, filtered with 70 μm cell strainers (BD labware), and RBC-depleted using Tris-buffered ammonium chloride lysis. For splenocyte preparation, spleens were harvested and dissociated into single-cell suspensions either by passage through 70 μm cell strainers in tissue medium or by using frosted glass slides, and blood erythrocytes were depleted with ammonium chloride lysis. For isolation of peritoneal cells, peritoneal cavities of sacrificed mice were lavaged by injection with 10 ml of PBS, followed by gentle massage of the abdomen, and withdrawal of the peritoneal exudates. BM, splenic, and peritoneal single cell suspensions were centrifuged at 1500 rpm for 5 min and resuspended in 5, 10, and 1 ml of tissue media, respectively, for cell counts and immunofluorescence staining. Cell counts were performed in duplicate on a Coulter ZI Dual Threshold Cell Counter (Coulter).\n(§3) Antibodies and flow cytometry. Immunofluorescent staining of single cell suspensions (≧2×10^6) was conducted using pre-mixed combinations of fluorochrome-labeled antibodies and APC-conjugated B cell tetramers at empirically-determined optimal concentrations. All antibodies were from BD unless otherwise stated. […] Other reagents included biotinylated antibodies against dump channel markers: Thy1 (Ox7; Abcam), F4/80 (BM8; Abcam), CD11c (clone HL3), Gr-1 (clone RB6-8C5), TER-119, and NK-1.1 (clone PK136), secondary staining SA-Texas Red conjugate; v-amine live/dead violet dye (Molecular Probes), and Fc block (anti-CD16/32; clone 2.4G2).\n(§4) Staining was conducted at 4° C. in several sequential steps in FACS staining buffer (1×PBS with 2% FCS, 0.1% NaN3), washing twice between steps. First, cells were incubated with v-amine live/dead dye for 15 min. Next, cells were stained with APC-labeled tetramers for 30 min. Where applicable, this was preceded by addition of cold tetramer at 10 fold molar excess for 1 h. Finally, cells were stained with Fc block for 30 min, followed by incubation with combinations of primary antibody cocktails for 30 min, and secondary staining with SA-Texas Red for 30 min.\n(§5) Data were acquired using an LSRII flow cytometer and Cell Quest software (BD Immunocytometry systems). A minimum of 250000 events were acquired per sample. FACS Analysis was performed using FlowJo software (Tree Star). For analysis, single cells were positively gated based on their forward scatter height vs. forward scatter area and side scatter height vs. side scatter area profiles, lymphocytes were then positively gated based on their forward and side scatter profile (live lymphocyte gate), residual dead cells were excluded with negative gating on v-amine live/dead dye, and all irrelevant non-B cells were excluded with negative gating on dump markers Thy1, F4/80, CD11c, Gr-1, TER-119, and NK-1.1.\nTo examine if gp41 2F5 MPER epitope reactivity across B cell subsets mapped similarly on the IgH^b allotype, reactivity to gp41 2F5 MPER tetramers was measured by measuring the percentage of APC-labeled gp41 2F5 MPER tetramer-reactive cells in C57BL/6 bone marrow, splenic, and peritoneal B cell subsets (Table 10)."}, "[4]": {"tested_on": "total naïve splenic BALB/c B cells", "settings": "APC-labeled tetramer", "protocol": "as §2, §3, §4, §5"}, "[5]": {"tested_on": "total naïve splenic C57BL/6 B cells", "settings": "C57BL/6, APC-labeled tetramer", "protocol": "as §2, §3, §4, §5"}, "B220+ BALB/c splenocytes": {"tested_on": "B220+ BALB/c splenocytes", "settings": "pre-incubation with 10-fold molar excess unlabeled tetramer, 30 min on ice", "protocol": "as §4"}},
  "note": "Read-outs that look alike come from different tables or passages of the source. Marks after values point to notes of the source that are not given here. Ends that are not written are not given here. * marks the point of attachment. Biotin = O=C1N[C@H]2[C@H](CS[C@H]2CCCCC(=O)*)N1",
  "data": [
    {"substance": "Biotin-GGGQQEKNEQELLELDKWASLWN [gp41 MPER tetramer]", "values": [
      {"measurement": "binding to mAb cell line", "setting": "13H11 cells", "value": "bound"},
      {"measurement": "cells stained with tetramer", "setting": "[1]; mixture diluted tenfold with F39F cells", "value": 1.47, "unit": "%"},
      {"measurement": "cells staining over background", "setting": "[1]; mixture further diluted tenfold with F39F cells", "value": 0.12, "unit": "%"},
      {"measurement": "cells stained with tetramer", "setting": "[1]; mixture of 85% F39F cells and 15% 13H11 cells", "value": 15.1, "unit": "%"},
      {"measurement": "tetramer positive cells of CD19+ B cells", "setting": "[2]; before sorting, non-B cell depleted PBMC", "value": 0.15, "unit": "%"},
      {"measurement": "tetramer positive cells of CD19+ B cells", "setting": "[2]; reanalysis after sorting of tetramer positive gate", "value": 45.3, "unit": "%"},
      {"measurement": "% of subset binding tetramer ± SEM", "setting": "[3]; C57BL/6, Bone marrow, Immature", "value": "0.30 ± 0.04", "unit": "%"},
      {"measurement": "% of subset binding tetramer ± SEM", "setting": "[3]; C57BL/6, Bone marrow, MF", "value": "0.15 ± 0.06", "unit": "%"},
      {"measurement": "% of subset binding tetramer ± SEM", "setting": "[3]; C57BL/6, Bone marrow, Pro/pre", "value": "0.05 ± 0.01", "unit": "%"},
      {"measurement": "% of subset binding tetramer ± SEM", "setting": "[3]; C57BL/6, Bone marrow, T1", "value": "0.62 ± 0.10^d %"},
      {"measurement": "% of subset binding tetramer ± SEM", "setting": "[3]; C57BL/6, Bone marrow, T2", "value": "0.54 ± 0.09^d %"},
      {"measurement": "% of subset binding tetramer ± SEM", "setting": "[3]; C57BL/6, Peritoneum, B1a", "value": "0.52 ± 0.08", "unit": "%"},
      {"measurement": "% of subset binding tetramer ± SEM", "setting": "[3]; C57BL/6, Peritoneum, B1b", "value": "0.50 ± 0.13", "unit": "%"},
      {"measurement": "% of subset binding tetramer ± SEM", "setting": "[3]; C57BL/6, Peritoneum, B2", "value": "0.32 ± 0.09", "unit": "%"},
      {"measurement": "% of subset binding tetramer ± SEM", "setting": "[3]; C57BL/6, Spleen, MF", "value": "0.16 ± 0.02", "unit": "%"},
      {"measurement": "% of subset binding tetramer ± SEM", "setting": "[3]; C57BL/6, Spleen, MZ", "value": "0.25 ± 0.04", "unit": "%"},
      {"measurement": "% of subset binding tetramer ± SEM", "setting": "[3]; C57BL/6, Spleen, T1", "value": "0.24 ± 0.06", "unit": "%"},
      {"measurement": "% of subset binding tetramer ± SEM", "setting": "[3]; C57BL/6, Spleen, T2", "value": "0.21 ± 0.07", "unit": "%"},
      {"measurement": "fraction of total naïve splenic B cell repertoire binding tetramer", "setting": "[4]", "value": "> 5", "unit": "%"},
      {"measurement": "fraction of total naïve splenic B cell repertoire binding tetramer", "setting": "[5]", "value": "< 0.3", "unit": "%"},
      {"measurement": "inhibition of binding of APC-labeled gp41 MPER-tetramer", "setting": "B220+ BALB/c splenocytes", "value": "> 90", "unit": "%"}
    ]}
  ]
}
